Test results as given in US7001625B2, “Solid phase synthesis of salts of organic acids including butyric acid” (Kemin Industires, Inc., priority 2001, dated 2006).

Assays:
Ross broiler chicks = assay: Broiler pen trial, early chick growth to 15 days (organic acids and sodium butyrate); type: in vivo
From the text: In a broiler trial four different treatments were used in order to evaluate the possible synergistic effect between organic acids and sodium butyrate.
This pen trial included eight replicates of four treatments (Table 1). Each pen had 74 mixed sex commercial Ross broiler chicks. Birds were fed a wheat-based diet including enzymes. All birds were weighed on days 1, 5, 10 and 15.

Ross broilers = assay: Broiler floor pen trial to day 39, formulations with or without calcium butyrate vs Avilamycine; type: in vivo
From the text: The objective of this trial was to study and compare two formulations (Table 4) with organic acids and calcium salts of organic acids. One of the formulations included calcium butyrate. Both formulations were compared with a positive and negative control in order to evaluate their possible growth promoting effect evaluated by broiler performance.
Twelve-hundred Ross broilers were divided over 40 floor pens. Each pen contained 15 male and 15 female Ross broilers, one tube feeder and one bell drinker. Feed and water were available ad libitum. All birds received a broiler starter feed from day 0 until day 11 and a broiler finisher meal from day 11 until day 39. […] Pens were assigned to one of four treatments (ten replicate pens for each treatment) using a block randomization. The in feed treatments consisted of: A. no treatment (negative control); B. Avilamycine 10 g/ton (positive control, dosed as Maxus G200 at 50 g/ton); C. Mixture 1, 5000 g/ton and D. mixture 2, 5000 g/ton. In the broiler house the temperature program started on day 0 at 31° C. decreasing 1° C. every two days until 21° C. was reached. The day-night cycle was 23 hours light and 1 hour dark. All birds were weighed at days 0, 11, 25, and 39. Feed usage was measured at days 11, 25 and 39. Live performance data were analyzed as a randomized block design with pen means as the statistical unit. Statistical analysis was performed with Figurepad Instat 2.0 and Microsoft Excel Analysis Toolpak software.

[1] = to 15 days, wheat-based diet, doses as in Table 1
[2] = day 11, Avilamycine 10 g/ton, formulations 5000 g/ton in feed, mean ± SD
[3] = day 25, Avilamycine 10 g/ton, formulations 5000 g/ton in feed, mean ± SD
[4] = day 39, Avilamycine 10 g/ton, formulations 5000 g/ton in feed, mean ± SD

Compound | Feed conversion ratio based on weight gain, statistical comparison with control/other treatments (Ross broiler chicks; day 15, P<0.039 for the combination) | FCR based on wt gain (Ross broiler chicks; [1]) | Feed consumed (g/bird) (Ross broiler chicks; [1]) | Weight gain (g/bird) (Ross broiler chicks; [1]) | FCR day 11 (Ross broilers; [2]) | WG(g) Day 11 (Ross broilers; [2]) | Weight gain compared with control groups, in words (Ross broilers; day 25) | FCR day 25 (Ross broilers; [3]) | WG(g) Day 25 (Ross broilers; [3]) | FCR day 39 (Ross broilers; [4]) | WG(g) Day 39 (Ross broilers; [4])
CCCC(=O)[O-].[Na+] [Treatment B, sodium butyrate] | not statistically different from the control group | 1.279a | 441.3 g/bird | 358.4a g/bird | – | – | – | – | – | – | –
Avilamycine | – | – | – | – | 1.314 ± 0.034 a | 227 ± 7 a g | performed better than the negative control group | 1.775 ± 0.135 a | 853 ± 44 b g | 1.839 ± 0.061 ab | 1981 ± 58 b g
